# Source: ChEMBL document CHEMBL5055675, “Apoptosis Inducing 1,3,4-Oxadiazole Conjugates of Capsaicin: Their In Vitro Antiproliferative and In Silico Studies” (ACS Med Chem Lett, 2021)
# What was measured:
# Type in all cases: functional
# [1] = system: MOLT-4; assay: Antiproliferative activity against human MOLT-4 cells assessed as cell growth at 10 uM incubated for 48 hrs by sulforhodamine B assay relative to control; details: read-out: Activity
# [2] = system: DU-145; assay: Antiproliferative activity against human DU-145 cells assessed as cell growth at 10 uM incubated for 48 hrs by sulforhodamine B assay relative to control; details: read-out: Activity
# [3] = system: MDA-MB-231; assay: Antiproliferative activity against human MDA-MB-231/ATCC cells assessed as cell growth at 10 uM incubated for 48 hrs by sulforhodamine B assay relative to control; details: read-out: Activity
# [4] = system: UACC-62; assay: Antiproliferative activity against human UACC-62 cells assessed as cell growth at 10 uM incubated for 48 hrs by sulforhodamine B assay relative to control; details: read-out: Activity
# [5] = system: UO-31; assay: Antiproliferative activity against human UO-31 cells assessed as cell growth at 10 uM incubated for 48 hrs by sulforhodamine B assay relative to control; details: read-out: Activity
# [6] = system: UACC-257; assay: Antiproliferative activity against human UACC-257 cells assessed as cell growth at 10 uM incubated for 48 hrs by sulforhodamine B assay relative to control; details: read-out: Activity
# [7] = system: NCI-H226; assay: Antiproliferative activity against human NCI-H226 cells assessed as cell growth at 10 uM incubated for 48 hrs by sulforhodamine B assay relative to control; details: read-out: Activity
# [8] = system: SK-OV-3; assay: Antiproliferative activity against human SK-OV-3 cells assessed as cell growth inhibition measured after 72 hrs by crystal violet staining based assay; details: SK-OV-3, 72 h
# [9] = system: EKVX; assay: Antiproliferative activity against human EKVX cells assessed as cell growth at 10 uM incubated for 48 hrs by sulforhodamine B assay relative to control; details: read-out: Activity
# [10] = system: U-251; assay: Antiproliferative activity against human U-251 cells assessed as cell growth at 10 uM incubated for 48 hrs by sulforhodamine B assay relative to control; details: read-out: Activity
# [11] = system: OVCAR-8; assay: Antiproliferative activity against human OVCAR-8 cells assessed as cell growth at 10 uM incubated for 48 hrs by sulforhodamine B assay relative to control; details: read-out: Activity
# [12] = system: 786-0; assay: Antiproliferative activity against human 786-0 cells assessed as cell growth at 10 uM incubated for 48 hrs by sulforhodamine B assay relative to control; details: read-out: Activity
# [13] = system: SK-MEL-28; assay: Antiproliferative activity against human SK-MEL-28 cells assessed as cell growth at 10 uM incubated for 48 hrs by sulforhodamine B assay relative to control; details: read-out: Activity
# [14] = system: A549; assay: Antiproliferative activity against human A549/ATCC cells assessed as cell growth at 10 uM incubated for 48 hrs by sulforhodamine B assay relative to control; details: read-out: Activity
# [15] = system: A498; assay: Antiproliferative activity against human A498 cells assessed as cell growth at 10 uM incubated for 48 hrs by sulforhodamine B assay relative to control; details: read-out: Activity
# [16] = system: ACHN; assay: Antiproliferative activity against human ACHN cells assessed as cell growth at 10 uM incubated for 48 hrs by sulforhodamine B assay relative to control; details: read-out: Activity
# [17] = system: SF-295; assay: Antiproliferative activity against human SF-295 cells assessed as cell growth at 10 uM incubated for 48 hrs by sulforhodamine B assay relative to control; details: read-out: Activity
# [18] = system: CCRF-CEM; assay: Antiproliferative activity against human CCRF-CEM cells assessed as cell growth at 10 uM incubated for 48 hrs by sulforhodamine B assay relative to control; details: read-out: Activity
# [19] = system: NCI-H322M; assay: Antiproliferative activity against human NCI-H322M cells assessed as cell growth at 10 uM incubated for 48 hrs by sulforhodamine B assay relative to control; details: read-out: Activity
# [20] = system: K562; assay: Antiproliferative activity against human K562 cells assessed as cell growth at 10 uM incubated for 48 hrs by sulforhodamine B assay relative to control; details: read-out: Activity
# [21] = system: HCC 2998; assay: Antiproliferative activity against human HCC 2998 cells assessed as cell growth at 10 uM incubated for 48 hrs by sulforhodamine B assay relative to control; details: read-out: Activity
# [22] = system: HOP-62; assay: Antiproliferative activity against human HOP-62 cells assessed as cell growth at 10 uM incubated for 48 hrs by sulforhodamine B assay relative to control; details: read-out: Activity
# [23] = system: HCT-15; assay: Antiproliferative activity against human HCT-15 cells assessed as cell growth at 10 uM incubated for 48 hrs by sulforhodamine B assay relative to control; details: read-out: Activity
# [24] = system: HCT-116; assay: Antiproliferative activity against human HCT-116 cells assessed as cell growth at 10 uM incubated for 48 hrs by sulforhodamine B assay relative to control; details: read-out: Activity
# [25] = system: KM12; assay: Antiproliferative activity against human KM12 cells assessed as cell growth at 10 uM incubated for 48 hrs by sulforhodamine B assay relative to control; details: read-out: Activity
# [26] = system: OVCAR-5; assay: Antiproliferative activity against human OVCAR-5 cells assessed as cell growth at 10 uM incubated for 48 hrs by sulforhodamine B assay relative to control; details: read-out: Activity
# [27] = system: SK-MEL-2; assay: Antiproliferative activity against human SK-MEL-2 cells assessed as cell growth at 10 uM incubated for 48 hrs by sulforhodamine B assay relative to control; details: read-out: Activity
# [28] = system: BT-549; assay: Antiproliferative activity against human BT-549 cells assessed as cell growth at 10 uM incubated for 48 hrs by sulforhodamine B assay relative to control; details: read-out: Activity
# [29] = system: HL-60(TB); assay: Antiproliferative activity against human HL-60 (TB) cells assessed as cell growth at 10 uM incubated for 48 hrs by sulforhodamine B assay relative to control; details: read-out: Activity
# [30] = system: SNB-75; assay: Antiproliferative activity against human SNB-75 cells assessed as cell growth at 10 uM incubated for 48 hrs by sulforhodamine B assay relative to control; details: read-out: Activity
# [31] = system: RXF 393; assay: Antiproliferative activity against human RXF 393 cells assessed as cell growth at 10 uM incubated for 48 hrs by sulforhodamine B assay relative to control; details: read-out: Activity
# [32] = system: RPMI-8226; assay: Antiproliferative activity against human RPMI-8226 cells assessed as cell growth at 10 uM incubated for 48 hrs by sulforhodamine B assay relative to control; details: read-out: Activity
# [33] = system: IGROV-1; assay: Antiproliferative activity against human IGROV-1 cells assessed as cell growth at 10 uM incubated for 48 hrs by sulforhodamine B assay relative to control; details: read-out: Activity
# [34] = system: T47D; assay: Antiproliferative activity against human T47D cells assessed as cell growth at 10 uM incubated for 48 hrs by sulforhodamine B assay relative to control; details: read-out: Activity
# [35] = system: SW-620; assay: Antiproliferative activity against human SW-620 cells assessed as cell growth at 10 uM incubated for 48 hrs by sulforhodamine B assay relative to control; details: read-out: Activity
# [36] = system: SNB-19; assay: Antiproliferative activity against human SNB-19 cells assessed as cell growth at 10 uM incubated for 48 hrs by sulforhodamine B assay relative to control; details: read-out: Activity
# [37] = system: LOX IMVI; assay: Antiproliferative activity against human LOX IMVI cells assessed as cell growth at 10 uM incubated for 48 hrs by sulforhodamine B assay relative to control; details: read-out: Activity
# [38] = system: NCI-H460; assay: Antiproliferative activity against human NCI-H460 cells assessed as cell growth at 10 uM incubated for 48 hrs by sulforhodamine B assay relative to control; details: read-out: Activity
# [39] = system: NCI/ADR-RES; assay: Antiproliferative activity against human NCI/ADR-RES cells assessed as cell growth at 10 uM incubated for 48 hrs by sulforhodamine B assay relative to control; details: read-out: Activity
SMILES,growth at 10 µM [1],growth at 10 µM [2],growth at 10 µM [3],growth at 10 µM [4],growth at 10 µM [5],growth at 10 µM [6],growth at 10 µM [7],growth at 10 µM [9],growth at 10 µM [10],growth at 10 µM [11],growth at 10 µM [12],growth at 10 µM [13],growth at 10 µM [14],growth at 10 µM [15],growth at 10 µM [16],growth at 10 µM [17],growth at 10 µM [18],growth at 10 µM [19],growth at 10 µM [20],growth at 10 µM [21],other results
COc1cc(CNC(=O)CCCC/C=C/C(C)C)ccc1OCc1nnc(Nc2ccc([N+](=O)[O-])cc2)o1,84.2%,62%,67.1%,39.6%,58.7%,77.6%,62.1%,74.7%,48.6%,25%,22.2%,78.9%,49%,56.8%,41.2%,64.9%,78.8%,54.9%,59.6%,83.6%,IC50 [8]: 6.4 µM; growth at 10 µM [22]: 0%; growth at 10 µM [23]: 81.2%; growth at 10 µM [24]: 24.6%; growth at 10 µM [25]: 71.7%; growth at 10 µM [26]: 101%; growth at 10 µM [27]: 71.9%; growth at 10 µM [28]: 108%; growth at 10 µM [29]: 101%; growth at 10 µM [30]: 48.7%; growth at 10 µM [31]: 54.1%; growth at 10 µM [32]: 52.3%; growth at 10 µM [33]: 53.5%; growth at 10 µM [34]: 48.6%; growth at 10 µM [35]: 67.3%; growth at 10 µM [36]: 54%; growth at 10 µM [37]: 55.2%; growth at 10 µM [38]: 33.5%; growth at 10 µM [39]: 79.6%
COc1cc(CNC(=O)CCCC/C=C/C(C)C)ccc1OCc1nnc(Nc2ccccc2F)o1,82%,88.7%,63.9%,65.5%,52.8%,98.2%,64.5%,77.1%,84%,45.2%,12%,85.2%,105%,92.5%,56%,48%,83%,86.1%,60.4%,90.8%,IC50 [8]: 12.5 µM; growth at 10 µM [22]: 56.4%; growth at 10 µM [23]: 90.1%; growth at 10 µM [24]: 53.5%; growth at 10 µM [25]: 78.8%; growth at 10 µM [26]: 77.7%; growth at 10 µM [27]: 111%; growth at 10 µM [28]: 77%; growth at 10 µM [29]: 89.7%; growth at 10 µM [30]: 57.8%; growth at 10 µM [31]: 68.8%; growth at 10 µM [32]: 64.9%; growth at 10 µM [33]: 58.4%; growth at 10 µM [34]: 65%; growth at 10 µM [35]: 98.9%; growth at 10 µM [36]: 58.5%; growth at 10 µM [37]: 83.4%; growth at 10 µM [38]: 80.3%; growth at 10 µM [39]: 43.4%
COc1cc(CNC(=O)CCCC/C=C/C(C)C)ccc1OCc1nnc(SCCc2c[nH]c3ccccc23)o1,29.2%,94.9%,70.6%,67.5%,45%,101%,67.2%,57.4%,80.5%,71.3%,89.3%,104%,79.4%,73.3%,76.5%,68.8%,34.7%,88.7%,40.7%,98%,IC50 [8]: 31.4 µM; growth at 10 µM [22]: 92.8%; growth at 10 µM [23]: 68.6%; growth at 10 µM [24]: 70%; growth at 10 µM [25]: 73.3%; growth at 10 µM [26]: 102%; growth at 10 µM [27]: 86.7%; growth at 10 µM [28]: 75%; growth at 10 µM [29]: 50.2%; growth at 10 µM [30]: 83.1%; growth at 10 µM [31]: 54%; growth at 10 µM [33]: 73.7%; growth at 10 µM [34]: 43%; growth at 10 µM [35]: 84.7%; growth at 10 µM [36]: 77%; growth at 10 µM [37]: 55.2%; growth at 10 µM [38]: 89.8%; growth at 10 µM [39]: 56.5%
COc1cc(CNC(=O)CCCC/C=C/C(C)C)ccc1OCc1nnc(Nc2cccc(Br)c2)o1,83.5%,89.8%,78.3%,67.5%,64%,105%,50.4%,78.1%,102%,98%,95.6%,107%,95.4%,77.8%,85.1%,84.2%,81.8%,98%,65%,101%,growth at 10 µM [22]: 75.6%; growth at 10 µM [23]: 90.2%; growth at 10 µM [24]: 67.6%; growth at 10 µM [25]: 90.3%; growth at 10 µM [26]: 91.1%; growth at 10 µM [27]: 105%; growth at 10 µM [28]: 76.4%; growth at 10 µM [29]: 79.8%; growth at 10 µM [30]: 83.5%; growth at 10 µM [31]: 70.6%; growth at 10 µM [32]: 70.3%; growth at 10 µM [33]: 92.9%; growth at 10 µM [34]: 58.9%; growth at 10 µM [35]: 95.4%; growth at 10 µM [36]: 99.5%; growth at 10 µM [37]: 88.9%; growth at 10 µM [38]: 97.5%; growth at 10 µM [39]: 87%
